From the NIST ThermoML archive (doi:10.1016/j.tca.2013.04.011)
± gives the expanded uncertainty stated by the source.

Conditions: 101.33 kPa, Liquid; for speed of sound: Single path-length method; for mass density: Vibrating tube method

Compound | speed of sound (293.15 K) | mass density (293.15 K) | speed of sound (298.15 K) | mass density (298.15 K) | speed of sound (303.15 K) | mass density (303.15 K) | speed of sound (308.15 K) | mass density (308.15 K)
O=C1CCCN1 [2-pyrrolidinone] | 1650.1 ± 1.1 m/s | 1111.28 ± 0.41 kg/m3 | 1633.9 ± 1.1 m/s | 1107.15 ± 0.41 kg/m3 | 1617.1 ± 1.1 m/s | 1103.02 ± 0.41 kg/m3 | 1601.8 ± 1.1 m/s | 1098.9 ± 0.4 kg/m3
CCn1cc[n+](C)c1.F[B-](F)(F)F [1-ethyl-3-methylimidazolium tetrafluoroborate] | 1631 ± 2 m/s | 1283.89 ± 1.9 kg/m3 | 1619.4 ± 2 m/s | 1279.91 ± 1.9 kg/m3 | 1607.6 ± 2 m/s | 1276.26 ± 1.9 kg/m3 | 1596.3 ± 2 m/s | 1272.07 ± 1.9 kg/m3
CN1CCCC1=O [N-methylpyrrolidone] | 1565.5 ± 1.1 m/s | 1033.23 ± 0.33 kg/m3 | 1546 ± 1.1 m/s | 1028.23 ± 0.33 kg/m3 | 1527.2 ± 1.1 m/s | 1023.46 ± 0.32 kg/m3 | 1507.4 ± 1.1 m/s | 1018.66 ± 0.32 kg/m3
